Among the data in patent publication US20240417359A1, “PRECURSORS OF PHENOLIC FRAGRANT COMPOUNDS” (GIVAUDAN SA, priority 2021, published 2024) are Odour description values, retold here.

This test can be described thus: Odour description on paper blotter. Conditions: 1% solution in EtOH on paper blotter, 24 h.

Consider “1-(dec-1-en-4-yloxy)-2-ethoxy-4-methylbenzene and 2-(dec-1-en-4-yloxy)-1-ethoxy-4-methylbenzene [Example 46]”, for which the Odour description result is recorded as “medicinal, phenolic, vanilla”.

For the molecule `CCCCCC[C@@H](C/C=C\CCCCCCCC(=O)OC)Oc1cc(C)c(C(=O)OC)c(O)c1C` [Example 3, methyl (S,Z)-2-hydroxy-4-((18-methoxy-18-oxooctadec-9-en-7-yl)oxy)-3,6-dimethylbenzoate], the Odour description entry is “powdery mossy, evernyl, green, fatty”.

As to `CCCCCCC(CC=C(C)C)Oc1ccc(C=O)cc1OCC` (centres unmarked) [Example 4, 3-ethoxy-4-((2-methylundec-2-en-5-yl)oxy)benzaldehyde], the Odour description entry is listed as “vanilla (powdery, creamy) dry (dough)”.

As for `C=CCC(Oc1ccc(CCC(C)=O)cc1)C(C)=CCC` (centres unmarked) [Example 5, 4-(4-((5-methylocta-1,5-dien-4-yl)oxy)phenyl)butan-2-one], the Odour description result is on record as “fruity (powdery, sweet, raspberry)”.

In the case of `C=CCC(Oc1ccc(C=CC)cc1OC)C(C)=CCC` (centres unmarked) [Example 6, 2-methoxy-1-((5-methylocta-1,5-dien-4-yl)oxy)-4-(prop-1-en-1-yl)benzene], the Odour description result is “woody (smokey, cedarwood, pyrogravure)”.

On to `C=CCC(Oc1cc(C)c(C(=O)OC)c(O)c1C)C(C)=CCC` (centres unmarked) [Example 7, methyl 2-hydroxy-3,6-dimethyl-4-((5-methylocta-1,5-dien-4-yl)oxy)benzoate], for which the Odour description result is recorded as “powdery (evernyl)”.

On to `C=CCC(Oc1ccc(CCC(C)=O)cc1)c1ccccc1` (centres unmarked) [Example 8, 4-(4-((1-phenylbut-3-en-1-yl)oxy)phenyl)butan-2-one], for which the Odour description entry is given as “fruity (powdery, sweet, raspberry)”.

Take `CCCCCCC=CC=CCC(CCCCCC)Oc1ccc(CCC(C)=O)cc1` (centres unmarked) [Example 9, 4-(4-((octadeca-9,11-dien-7-yl)oxy)phenyl)butan-2-one]: the Odour description entry is reported as “powdery fruity raspberry”.

On to `CCCCCCC(CC=CCC(CCCCCC)Oc1ccc(CCC(C)=O)cc1)Oc1ccc(CCC(C)=O)cc1` (centres unmarked) [Example 10, 4,4′-((octadec-9-ene-7,12-diylbis(oxy))bis(4,1-phenylene))bis(butan-2-one)], for which the Odour description entry is “powdery fruity raspberry”.

In the case of `C=CCC(Oc1ccc(C=O)cc1OCC)C(C)=CCC` (centres unmarked) [Example 11, 3-ethoxy-4-((5-methylocta-1,5-dien-4-yl)oxy)benzaldehyde], the Odour description result is listed as “powdery (vanilla)”.

With `C=CCC(C/C=C\CC)Oc1ccc(C=CC)cc1OC` (centres unmarked) [Example 13, 2-methoxy-1-(((Z)-nona-1,6-dien-4-yl)oxy)-4-(prop-1-en-1-yl)benzene], the Odour description entry is listed as “creamy, vanilla”.

As for `C=C(C)[C@@H]1CC[C@@H](C)C[C@@H]1Oc1ccc(CCC(C)=O)cc1` [Example 14, 4-(4-(((1S,2S,5R)-5-methyl-2-(prop-1-en-2-yl)cyclohexyl)oxy)phenyl)butan-2-one], the Odour description result is on record as “sweet fruity (raspberry)”.

In the case of `CCCCCC(CC=Cc1ccccc1)Oc1ccc(C=O)cc1OCC` (centres unmarked) [Example 15, 3-ethoxy-4-((1-phenylnon-1-en-4-yl)oxy)benzaldehyde], the Odour description entry was “powdery (vanilla)”.

Turning to `CCOc1cc(C=O)ccc1OC(C)(C)CC=C=C(C)C` [Example 16, 4-((2,6-dimethylhepta-4,5-dien-2-yl)oxy)-3-ethoxybenzaldehyde], the Odour description entry is on record as “powdery (vanilla)”.

As to `CCOc1cc(C=O)ccc1OC(C)(C)CC=C=C(C)CCC=C(C)C` [Example 18, 3-ethoxy-4-((2,6,10-trimethylundeca-4,5,9-trien-2-yl)oxy)benzaldehyde], the Odour description result is reported as “vanilla powdery”.

Turning to `CC/C=C/CC(CCC)Oc1ccc(C=O)cc1OCC` (centres unmarked) [Example 19, (E)-3-ethoxy-4-(non-6-en-4-yloxy)benzaldehyde], the Odour description entry is “vanilla powdery creamy”.

For `CCOc1cc(C=O)ccc1OCC/C=C(\C)CC/C=C(\C)CCC=C(C)C` [Example 20, 3-ethoxy-4-(((3E,7E)-4,8,12-trimethyltrideca-3,7,11-trien-1-yl)oxy)benzaldehyde], the Odour description result is reported as “vanilla (powdery, creamy, chocolate, gourmand)”.

In the case of `CC=CCC(C)(Cc1ccccc1)Oc1ccc(C=O)cc1OCC` (centres unmarked) [Example 21, 3-ethoxy-4-((2-methyl-1-phenylhex-4-en-2-yl)oxy)benzaldehyde], the Odour description result is reported as “powdery (vanilla) creamy (milky)”.

For the molecule `C=CCC(CCCCCC)Oc1ccc(C=O)cc1OCC` (centres unmarked) [Example 22, 4-(dec-1-en-4-yloxy)-3-ethoxybenzaldehyde], the Odour description entry was “dry powdery (cedarwood, vanilla)”.

Regarding `C=CCC(CCCCCC)Oc1ccc(CCC(C)=O)cc1` (centres unmarked) [Example 23, 4-(4-(dec-1-en-4-yloxy)phenyl)butan-2-one], the Odour description result is reported as “fruity (raspberry, gourmand) sugary”.

With `C=CCC(CCCCCC)Oc1cc(C)c(C(=O)OC)c(O)c1C` (centres unmarked) [Example 24, methyl 4-(dec-1-en-4-yloxy)-2-hydroxy-3,6-dimethylbenzoate], the Odour description result is “powdery (mossy, evernyl)”.

Take `C=CCC(CCCCCCCCCC)Oc1ccccc1C(=O)OC` (centres unmarked) [Example 25, methyl 2-(tetradec-1-en-4-yloxy)benzoate]: the Odour description result is “aldehydic, metallic, green, citrus”.

As for `C=CCC(CCCCCCCCCC)Oc1ccccc1C(=O)CC` (centres unmarked) [Example 26, 1-(2-(tetradec-1-en-4-yloxy)phenyl)propan-1-one], the Odour description entry is reported as “aldehydic, metallic, green, citrus”.

Take `C=CCC(CCCCCCCCCC)Oc1ccc(C=O)cc1OCC` (centres unmarked) [Example 27, 3-ethoxy-4-(tetradec-1-en-4-yloxy)benzaldehyde]: the Odour description result is “powdery, vanilla, aldehydic, metallic, green, citrus, mandarin”.

Turning to `CC/C=C\C/C=C\CCOc1ccc(CCC(C)=O)cc1` [Example 31, 4-(4-(((3Z,6Z)-nona-3,6-dien-1-yl)oxy)phenyl)butan-2-one], the Odour description entry is reported as “green, leaf aldehyde, green apple, fruity”.

Take `CC/C=C\C/C=C\CCOc1ccccc1OC` [Example 32, 1-methoxy-2-(((3Z,6Z)-nona-3,6-dien-1-yl)oxy)benzene]: the Odour description entry is “green, leaf aldehyde”.

Take `CC/C=C\C/C=C\CCOc1ccc2ccccc2c1` [Example 33, 2-(((3Z,6Z)-nona-3,6-dien-1-yl)oxy)naphthalene]: the Odour description result was “weak, green, leaf aldehyde”.

On to `CC/C=C\C/C=C\CCOc1ccc(C=O)cc1OC` [Example 34, 3-methoxy-4-(((3Z,6Z)-nona-3,6-dien-1-yl)oxy)benzaldehyde], for which the Odour description entry is recorded as “green, leaf aldehyde, powdery, vanilla”.

Regarding `C=CCC(CCCCCCCCC)Oc1ccc(C=O)cc1OC` (centres unmarked) [Example 35, 3-methoxy-4-(tridec-1-en-4-yloxy)benzaldehyde], the Odour description entry is given as “powdery, vanilla, aldehydic, green, metallic, mandarin”.

Consider `C=CCC(CCCCCCCCC)Oc1ccc(COC)cc1OCC` (centres unmarked) [Example 37, 2-ethoxy-4-(methoxymethyl)-1-(tridec-1-en-4-yloxy)benzene], for which the Odour description result was “citrus, mandarin, green”.

As to `CCC=CCC(CCCCCCCCC)Oc1ccc(CCC(C)=O)cc1` (centres unmarked) [Example 39, 4-(4-(pentadec-3-en-6-yloxy)phenyl)butan-2-one], the Odour description entry was “raspberry, mandarin, citrus, aldehydic, fresh”.

On to `CCC=CCC(Oc1ccc(C=O)cc1OCC)C(=O)OCC` (centres unmarked) [Example 40, ethyl 2-(2-ethoxy-4-formylphenoxy)hept-4-enoate], for which the Odour description result is on record as “powdery (vanilla)”.

For the molecule `CC/C=C\CC(C/C=C\CC)Oc1ccc(C=O)cc1OCC` [Example 41, 3-ethoxy-4-(((3Z,8Z)-undeca-3,8-dien-6-yl)oxy)benzaldehyde], the Odour description entry was “vanilla, powdery”.

Regarding `CC=CCC(CCCCCC)Oc1ccc(C=O)cc1OCC` (centres unmarked) [Example 43, 3-ethoxy-4-(undec-2-en-5-yloxy)benzaldehyde], the Odour description entry is “powdery, creamy, vanilla”.

In the case of `CCC=CCC(CCCCCC)Oc1ccc(C=O)cc1OCC` (centres unmarked) [Example 44, 4-(dodec-3-en-6-yloxy)-3-ethoxybenzaldehyde], the Odour description entry is reported as “woody, cedarwood, vanilla”.

With `CCCCCCC(C/C=C\CCCCCCCC(=O)OC)Oc1ccccc1OC` (centres unmarked) [Example 45, methyl (Z)-12-(2-methoxyphenoxy)octadec-9-enoate], the Odour description entry is recorded as “phenolic, medicinal, guaiacol, vanilla absolute, peru balsam”.

As for `CCOc1cc(C=O)ccc1OCC/C=C(\C)c1ccccc1` [Example 48, (E)-3-ethoxy-4-((4-phenylpent-3-en-1-yl)oxy)benzaldehyde], the Odour description entry is reported as “sweet, powdery, vanilla, ice cream”.

As for `CCOc1cc(C=O)ccc1OCCC=C(C)c1ccc(OC)cc1` [Example 49, 3-ethoxy-4-((4-(4-methoxyphenyl)pent-3-en-1-yl)oxy)benzaldehyde], the Odour description entry is “sweet, powdery, vanilla, ice cream, soft anisic, heliotropine, anethiol”.

For the molecule `CCOc1cc(C=O)ccc1OCCC=C(C)Cc1ccccc1` [Example 50, 3-ethoxy-4-((4-methyl-5-phenylpent-3-en-1-yl)oxy)benzaldehyde], the Odour description entry is given as “powdery, vanilla, ice cream”.

In the case of `CCOc1cc(C=O)ccc1OCC/C=C(\C)c1ccc2ccccc2c1` [Example 51, (E)-3-ethoxy-4-((4-(naphthalen-2-yl)pent-3-en-1-yl)oxy)benzaldehyde], the Odour description entry was “powdery, vanilla, ice cream, floral, neroli, orange flower, baby cologne, madeleine, fougassette”.

Take `COc1ccc(C(C)=CCCOc2ccc(CCC(C)=O)cc2)cc1` [Example 53, 4-(4-((4-(4-methoxyphenyl)pent-3-en-1-yl)oxy)phenyl)butan-2-one]: the Odour description entry is listed as “sweet powdery, anisic aldehyde, fruity, raspberry ketone”.

With `CCOc1cc(C=O)ccc1OCCC=C(C)CCc1ccc(OC)cc1` [Example 54, 3-ethoxy-4-((6-(4-methoxyphenyl)-4-methylhex-3-en-1-yl)oxy)benzaldehyde], the Odour description entry was “powdery, vanilla”.

As to `COC(=O)c1ccccc1OCCC=C(C)CCc1ccccc1` [Example 56, methyl 2-((4-methyl-6-phenylhex-3-en-1-yl)oxy)benzoate], the Odour description result is “wintergreen, salicylate, slightly powdery, vanilla”.

As for `CCC(=O)c1ccccc1OCCC=C(C)CCc1ccccc1` [Example 57, 1-(2-((4-methyl-6-phenylhex-3-en-1-yl)oxy)phenyl)propan-1-one], the Odour description entry is “wintergreen, salicylate, slightly powdery, vanilla”.
